Our source for the A405 nm/min values is US8541189B2, “Method for measuring the plasmine activity of microparticles present in a sample of blood or a blood component” (Institut National de la Sante et de la Recherche Medicale …, priority 2007, dated 2013).

The assay has as its target plasminogen (Homo sapiens, UniProt P00747). Kind of assay: Plasmin-generation test, EMPs in suspension. The conditions noted are these: 5 · 10^4 EMP/50 μL + EACA; 1 μM plasminogen; 0.75 mM CBS0065. It counts as biochemical. On the procedure:
In the round-bottomed wells of 96-well plates made of PVC, different EMP concentrations in suspension in PBS, to which 0.8% bovine serum albumin (PBSA) had been added, were incubated with 50 μl of a mixture of 1 μM plasminogen and (methyl-malonyl)-hydroxypropylarginine-p-nitroanilide (CBS0065, Stag°, Asniéres, France), chromogenic substrate selective for plasmin, at 0.75 mM.
An identical volume of supernatant from the last washing of the EMPs was used as a control.
The microplate was placed in the microplate readers and the kinetics of the appearance of the plasmin were monitored for 9 hours using a spectrophotometer suitable for reading multiwell plates (MX5000. Dynex) at 37° C. by measurement of the modifications of the absorbance at 405 nm produced by the release of the p-nitroaniline as a function of time.

Sequence of plasminogen (P00747 20-810 limits assumed, species assumed): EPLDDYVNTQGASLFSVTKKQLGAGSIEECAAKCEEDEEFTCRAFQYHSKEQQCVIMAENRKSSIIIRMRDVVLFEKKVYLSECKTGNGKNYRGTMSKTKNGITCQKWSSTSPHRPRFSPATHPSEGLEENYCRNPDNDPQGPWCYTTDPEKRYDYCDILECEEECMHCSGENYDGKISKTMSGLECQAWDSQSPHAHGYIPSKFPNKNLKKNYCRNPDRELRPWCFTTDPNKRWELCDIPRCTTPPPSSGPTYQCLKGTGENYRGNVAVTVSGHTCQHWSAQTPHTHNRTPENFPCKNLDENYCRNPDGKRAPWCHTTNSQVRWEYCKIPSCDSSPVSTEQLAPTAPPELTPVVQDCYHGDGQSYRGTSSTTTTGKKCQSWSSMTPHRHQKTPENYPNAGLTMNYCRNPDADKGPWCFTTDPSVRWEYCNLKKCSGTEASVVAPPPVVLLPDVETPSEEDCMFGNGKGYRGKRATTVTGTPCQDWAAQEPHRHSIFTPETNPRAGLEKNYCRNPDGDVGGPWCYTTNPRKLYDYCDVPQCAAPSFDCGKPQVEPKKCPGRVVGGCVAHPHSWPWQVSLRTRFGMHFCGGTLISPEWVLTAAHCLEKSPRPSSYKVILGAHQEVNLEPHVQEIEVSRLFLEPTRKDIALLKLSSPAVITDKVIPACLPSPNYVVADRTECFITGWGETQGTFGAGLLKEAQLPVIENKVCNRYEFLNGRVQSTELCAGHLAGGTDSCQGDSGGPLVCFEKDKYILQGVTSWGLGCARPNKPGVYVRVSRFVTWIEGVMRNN

As for `NCCCCCC(=O)O` [EACA, ε-aminocaproic acid], the A405 nm/min was 0.6 A405 nm/min.
